Laboratory results taken from patent publication EP0037780A1, “Alcoxy-propanol amines useful as medicines, and process for their preparation” (PIERRE FABRE S.A., priority 1980, dated 1981).
Converted amounts (≈) assume the structure as drawn. Read-outs that look alike come from different tables or passages of the source.

Experiment: Solubility
Format: physicochemical
Conditions: read-out: Solubilité
From the text: Chromatographie sur plaque : • - support : gel de silice 60 F 254 Merck • - solvant : chloroforme - méthanol - ammoniaque 80/18/2 • - révélation : iode • - Rf : 0,65 Solubilité : soluble à 5 % dans l'eau.
Chromatographie sur plaque : • - support : gel de silice 60 F 254 Merck • - solvant : chloroforme - méthanol - ammoniaque 80/18/2 • - révélation : iode • - Rf : 0,6 Solubilité : soluble à 1 % dans l'eau.
Chromatographie sur plaque : • - support : gel de silice 60 F 254 Merck • - solvant : chloroforme - méthanol - ammoniaque 80/18/2 • - révélation : Réactif de Dragendorf et iode • - Rf : 0,65 Solubilité : soluble à 2 % dans une solution aqueuse d'acide chlorhydrique (0,1 N) et à 1 % dans le propylène glycol.

In the case of `CC(C)=CCCC(C)CCOCC(O)CNC(C)C` (stereo not shown) [Exemple 3, isopropylamino-3 (diméthyl-3,7 octène-6 yloxy)-1 propanol-2], the solubility (0.1 n aqueous hydrochloric acid, dans une solution aqueuse d'acide chlorhydrique (0,1 N)) is reported as 20 mg/mL (≈ 73.7 mM) and the solubility (propylene glycol, organic solvent or mixture, dans le propylène glycol) is reported as 10 mg/mL (≈ 36.8 mM).
`CCCCOCC(O)CNC(C)(C)C` (stereo not shown) [Exemple 2, tertiobutylamino-3 butoxy-1 propanol-2] gave a solubility (water, dans l'eau) of 10 mg/mL (≈ 49.2 mM).
Work on `CCCCOCC(O)CNC(C)C` (stereo not shown) [Exemple 1, isopropylamino-3 butoxy-1 propanol-2] yielded a solubility (water, dans l'eau) of 50 mg/mL (≈ 264 mM).
